± gives the expanded uncertainty stated by the source.
Columns and labels:
[1] = molar enthalpy of vaporization or sublimation; settings: 298.15 K, Crystal
[2] = Crystal
[3] = stuart scientific smp2 calibrated apparatus

Which molar enthalpy ([1]; Vacuum drop calorimetry) does the source give for N#Cc1ccccc1C(=O)O [2-cyanobenzoic acid] here?
Its molar enthalpy is 27.4 ± 0.717 kcal/mol.

And the Normal melting temperature ([2]; DTA)?
Its Normal melting temperature is 232.6 ± 0.5 °C.

For N#Cc1cccc(C(=O)O)c1 [3-cyanobenzoic acid], which molar enthalpy ([1]; Vacuum drop calorimetry) is on record?
Its molar enthalpy is 27.9 ± 0.717 kcal/mol.

What about the Normal melting temperature [2, 3] of the same compound?
Its Normal melting temperature is 223 ± 1 °C.

What does the source list for N#Cc1ccc(C(=O)O)cc1 [4-cyanobenzoic acid]?
molar enthalpy ([1]; Unpublished results by the authors): 27 ± 0.478 kcal/mol; Normal melting temperature [2, 3]: 220 ± 1 °C

Reference: the NIST ThermoML archive (doi:10.1016/j.jct.2008.04.004)
